From patent US20250084116A1, “MIXTURE OF STEREOISOMERS OF A SULFATED GLYCOLIPID” (NATIONAL RESEARCH COUNCIL OF CANADA, priority 2022, published 2025)
“Also recorded” adds a separate entry of the source.

Columns and labels:
C57BL/6NCrl mice [1] = test: Enumeration of IFN-γ secreting Ova-CD8+ T cells in spleen by ELISPOT; format: in vivo; conditions: for Number of IFN γ-secreting Ova-CD8+ T cells, comparison with AddaVax-Ova (ANOVA, Tukey) / Number of IFN γ-secreting Ova-CD8+ T cells, comparison with MPL/alum-Ova (ANOVA, Tukey): 10 μg Ova and 1 mg SLA; for Change in ability to induce IFN-γ+ Ova-CD8+ T cells on reducing SLA dose: 1.0 mg reduced to 0.3 mg SLA; for Differences between SLA formulations to produce IFN-γ+ Ova-CD8+ T cells: at each dose tested
Source text: (§1) C57BL/6NCrl mice (6-8 weeks) were obtained from Charles River Laboratories (Saint-Constant, QC, Canada). Mice were maintained in individually ventilated cages with five female mice to a cage with easy access to food and water in a specific pathogen-free small animal facility with automatically controlled light/dark cycles, humidity and temperature at the National Research Council of Canada (NRC) in accordance with the guidelines of the Canadian Council on Animal Care. The animal use protocol (2016.08) was approved by the NRC Animal Care Committee. All mice were randomized upon entering the facility and were immunized and had samples collected and tested in a blinded method.
(§2) C57BL/6NCrl mice were immunized by i.m. injection (50 μL) into the left tibialis anterior muscle. All mice were immunized twice in a prime/boost regime on day 0 and day 21. Blood samples were taken for sera collection before boost on day 20 as well as on day 28 immediately prior to euthanasia where whole spleens were collected in necropsy.
(§3) SLA archaeosomes were prepared as described previously.^12 Briefly, SLA lipids (SLA-1, SLA-2 or SLA-3) were dissolved in chloroform/methanol and aliquoted to a glass vial; the organic solvent was removed under N2 gas with mild heating to form a thin lipid layer. A vacuum was applied for at least 2 h to ensure total removal of trace solvents. The lipid film was then hydrated with 1.0 mL of Milli-Q water and was shaken for 2 h at 40° C. or until hydration was completed. Archaeosome vesicles were reduced in size using a tabletop ultrasonic water bath (Fisher Scientific FS60H, 130 W and operating frequency of 40 kHz) and high pressure; they were then left to anneal at 4° C. for 12 h in static conditions and finally filter-sterilized through 0.22 μm filter units. The Ova protein solution (type VI, Sigma-Aldrich, Oakville, ON, Canada) was then added to the empty archaeosomes at the desired amount immediately before immunization so that a single dose contained 1 mg or 0.3 mg of SLA and 10 μg or 1 μg of antigen. The commercial adjuvant AddaVax™ (squalene-oil-in-water emulsion, Invivogen, San Diego, CA, USA) was prepared according to manufacturer's recommendations and mixed with 10 μg Ova protein at 1:1, v:v. The TLR4 agonist monophosphoryl Lipid A (MPLA from S. Minnesota R595 VacciGrade, InvivoGen, San Diego, CA, USA) was combined with Alum (Alhydrogel™ “85”, aluminum hydroxide, Brenntag Biosector, Frederikssund, Denmark), 10 μg: 40 μg respectively and 1 μg Ova. All solutions were brought to a physiological pH of 7.4 in phosphate-buffered saline (PBS).
The Enumeration of IFN-γ secreting cells was done by use of an ELISPOT assay as previously described.^12 Briefly, spleen cells (at a final cell density of 4×10^5 cells/well) were added to 96-well ELISPOT plates coated with anti-IFN-γ (Mabtech Inc., Cincinnati, OH, USA), and incubated in the presence of a peptide stimulant (or non-stimulant control) for 20 h at 37° C., 5% CO2. Peptide stimulant consisted of SIINFEKL, an Ovalbumin CD8^+ T cell epitope Ova257-264. Plates were then incubated, washed and developed using AEC substrate (Becton Dickinson, Franklin Lakes, NJ, USA) and counted using an automated ELISPOT plate reader by BIOSYS (Miami, FL, USA).
Data were analyzed using GraphPad Prism 9® (GraphPad Software, San Diego, CA, USA). Antibody titers were log transformed prior to testing and shown as geometric mean titer (GMT) with the lower and upper 95% confidence interval shown in the graph and written in the text. All in vivo generated data were analyzed with the one-way analysis of variance (ANOVA) test followed by post-hoc analysis using Tukey's multiple comparisons test (comparisons among all groups), as indicated in the figure legends. For all analyses, differences were considered to be not significant with p>0.05.

C57BL/6NCrl mice [2] = test: Anti-Ova total IgG titres in serum of immunized mice (ELISA); format: in vivo; conditions: day 28, two immunizations, 1 μg Ova and 1 mg SLA
Source text: as §1
C57BL/6NCrl mice were immunized by i.m. injection (50 μL) into the left tibialis anterior muscle. All mice were immunized twice in a prime/boost regime on day 0 and day 21. […]
Anti-Ova total IgG titers in mouse serum were quantified by ELISA as described previously.^11-12 Briefly, 96-well high-binding ELISA plates (Thermo Fisher Scientific, Waltham, MA, USA) were coated overnight with 10 μg/mL of the Ova protein used for immunization. […] No detectable titers were measured in serum samples from naïve control animals.
(§4) Data were analyzed using GraphPad Prism 9® (GraphPad Software, San Diego, CA, USA). […]

C57BL/6NCrl mice [3] = test: In vivo cytotoxicity assay of Ova-CD8+ T cells; conditions: for In vivo cytotoxicity of Ova-CD8+ T cells, comparison with AddaVax-Ova (ANOVA, Tukey): 10 μg Ova and 1 mg SLA, target cells injected day 27, read day 28; for Change in cytotoxic killing on reducing SLA dose: 1.0 mg reduced to 0.3 mg SLA; for CD8+ T cell cytotoxicity at lower Ova antigen or SLA adjuvant dose: lower dose (1 μg Ova or 0.3 mg SLA) versus optimal dose
Source text: as §1, §2, §3
The activity of antigen-specific CD8^+ T cells (CTL) was measured in vivo as previously described.^10 Briefly, donor spleen-cell suspensions from naïve C57BL/6NCrl mice were prepared. Cells were split into two aliquots. One aliquot was incubated at 37° C. with […] SIINFEKL (JPT Peptide Technologies GmbH) in RIO complete medium (RPMI 1640 with 10% heat-inactivated fetal bovine serum, 1% penicillin/streptomycin, 1% glutamine and 55 μM 2-mercaptoethanol) (Thermo Fisher Scientific, Waltham, MA, USA). After 30 min of incubation, the peptide-pulsed aliquot was stained with a high 10× concentration of CFSE (2.5 μM; Thermo Fisher Scientific); the second non-peptide-pulsed aliquot was stained with 1×CFSE ([…]). Two aliquots of cells (10×10^6/each) were mixed 1:1 and injected into previously immunized recipient mice. Mice injected with Ova alone dissolved in PBS served as controls. At ˜20 to 22 h after the donor cell transfer, spleens were removed from recipients, single-cell suspensions prepared, and cells analyzed by flow cytometry on a BD Fortessa flow cytometer (Becton Dickinson, Franklin Lakes, NJ, USA). The in vivo percentage of peptide pulsed targets relative to non-peptide pulsed targets was enumerated according to a previously published equation.^21, 24-25
as §4

| Compound | IFN-γ detectable spots (C57BL/6NCrl mice [1]; Ova antigen alone, unadjuvanted, day 28) | Anti-Ova IgG titres, comparison with MPL/alum (one-way ANOVA, Tukey) (C57BL/6NCrl mice [2]) | Number of IFN γ-secreting Ova-CD8+ T cells, comparison with AddaVax-Ova (ANOVA, Tukey) (C57BL/6NCrl mice [1]; day 28) | Number of IFN γ-secreting Ova-CD8+ T cells, comparison with MPL/alum-Ova (ANOVA, Tukey) (C57BL/6NCrl mice [1]; day 28) | Change in ability to induce IFN-γ+ Ova-CD8+ T cells on reducing SLA dose (C57BL/6NCrl mice [1]) | Differences between SLA formulations to produce IFN-γ+ Ova-CD8+ T cells (C57BL/6NCrl mice [1]) | In vivo cytotoxicity of Ova-CD8+ T cells, comparison with AddaVax-Ova (ANOVA, Tukey) (C57BL/6NCrl mice [3]) | Change in cytotoxic killing on reducing SLA dose (C57BL/6NCrl mice [3]) | CD8+ T cell cytotoxicity at lower Ova antigen or SLA adjuvant dose (C57BL/6NCrl mice [3]) | Adjuvant effectiveness relative to SLA-1 (IFN-γ ELISPOT) (C57BL/6NCrl mice [1]; FIG. 7) | Adjuvant effectiveness relative to SLA-1 (cytotoxic killing) (C57BL/6NCrl mice [3]; FIG. 8) |
| --- | --- | --- | --- | --- | --- | --- | --- | --- | --- | --- | --- |
| Ova: Ova protein (type VI, Sigma-Aldrich), model antigen; unadjuvanted control group [reference compound] | less than three |  |  |  |  |  |  |  |  |  |  |
| CC(C)CCCC(C)CCCC(C)CCCC(C)CCOC[C@@H](CO[C@@H]1O[C@H](CO)[C@@H](O[C@@H]2O[C@H](COS(=O)(=O)O)[C@H](O)[C@H](O)[C@H]2O)[C@H](O)[C@H]1O)OCCC(C)CCCC(C)CCCC(C)CCCC(C)C (stereo partly drawn) [SLA-1, 6′-sulfate-β-D-Galp-(1,4)-β-D-Glcp-(1,1)-archaeol, reference compound] |  | SLA-1>MPL/alum-Ova | SLA-1>AddaVax™-Ova | SLA-1>MPL/alum-Ova | significantly reduces | no statistically significant differences | SLA-1>AddaVax™-Ova | significantly reduces | lower CD8^+ T cell cytotoxicity |  |  |
| CC(C)CCCC(C)CCCC(C)CCCC(C)CCOCC(CO[C@@H]1OC(CO)C(O[C@@H]2OC(COS(=O)(=O)O)C(O)[C@H](O)C2O)[C@H](O)C1O)OCCC(C)CCCC(C)CCCC(C)CCCC(C)C (mixture of isomers) [SLA-3] |  | SLA-3>MPL/alum-Ova | SLA-3>AddaVax™-Ova | SLA-3>MPL/alum-Ova | Lesser reductions | no statistically significant differences | SLA-3>AddaVax™-Ova | Lesser reductions | lower CD8^+ T cell cytotoxicity | at least as effective as SLA-1; also recorded: as effective an adjuvant as semi-synthetically produced SLA | at least as effective as SLA-1 |
